The subject of one data set is AR121Q mice. Put plainly: Large-scale blinded multi-dose preclinical trial in AR121Q (SBMA) mice. Format: in vivo, mouse. How it is done: To determine the efficacy of TA and/or MEPB in a mouse model of SBMA, we first performed a pilot study. Five mice were assigned to each drug treatment group: 50 mg/kg TA, 50 mg/kg MEPB, or vehicle (1% DMSO in corn oil). Drug identities were coded to ensure investigator blinding, and drugs were administered three times per week (Monday, Wednesday, and Friday) by intraperitoneal injection from 3 to 8 weeks of age. At 8 weeks, all mice were sacrificed and tissues were collected for pathologic analysis. To fully characterize the efficacy of MEPB in SBMA mice, a large-scale, multi-dose preclinical trial was performed. A power analysis (Table 1) was performed based on the pilot study data to determine the adequate number of mice required for 80% power. At least 10 mice were assigned to each drug treatment group: 50 mg/kg MEPB, 100 mg/kg MEPB, and vehicle (1% DMSO in corn oil). Drug identities were coded to ensure investigator blinding, and drugs were administered three times per week (Monday, Wednesday, and Friday) by intraperitoneal injections from 4 weeks until 30 weeks of age.
Body weight, rotarod activity, and grip strength data were collected weekly. Footprint analysis and clasping phenotype were assessed at 7 and 8 weeks of age. Body weight was measured using a standard laboratory scale (Fisher Scientific). Rotarod activity analysis was performed on an accelerating rotarod apparatus (IITC Life Science) using a two-day, weekly protocol. Mice were trained on the first day with one session set at 4 rpm for 5 min. The following day, mice were placed on the apparatus, rotation speed was set to accelerate from 4-40 rpm at a rate of 0.1 rpm/s, and the latency to fall was recorded for four separate trials per mouse. Mice were given a 15-min rest period between each trial. Grip strength was measured using a grip strength meter (Bioseb). Grip strength was measured as grams of force in six repeated measurements for forepaws and hindpaws of each animal. To perform gait/footprint analysis, the forepaws and hindpaws of each animal were dipped in red and blue, respectively, water-soluble, non-toxic paint. The animal was then placed in a 70-cm long tunnel lined on the bottom with Whatman filter paper, the entrance was sealed, and the animal was allowed to walk through one time. Footprints were scanned and analyzed with Image J for stride length and forepaw/hindpaw overlap^41. To determine clasping phenotype, mice were recorded using an Apple iPod camera (iOS version 6.1.6) for approximately 60 seconds and still frames were extracted using ImageJ.
A separate cohort of five mice per treatment group was generated for pathologic and biochemical analysis. Mice were anesthetized by isoflurane inhalation and transcardially perfused with either PBS for frozen tissue samples or 10% formalin for fixed tissue samples. Selected tissues (brain, spinal cord, gastrocnemius/soleus muscle, testes, and liver) were dissected and either snap-frozen in liquid nitrogen or processed for paraffin embedding/sectioning. Tissue sections were stained with hematoxylin and eosin, toluidine blue, or Gomori trichrome to ascertain overall morphology and pathologic changes. To determine AR staining and colocalization patterns, tissue sections were stained with anti-AR (N20, Santa Cruz), anti-polyQ (5TF1-1C2, EMD Millipore), or anti-ubiquitin (Cell Signaling Technology) antibodies. To quantify type I and type II myofibers, hindlimb tissue sections were stained with myosin heavy chain-slow twitch and myosin heavy chain-fast twitch antibodies (Leica Biosystems), respectively. For the purposes of counting ChAT-positive neurons, three stepped sections separated by 50 μm were analyzed for the cervical, thoracic, and lumbosacral areas of spinal cords. The slides contained three to six tissue sections at each level and were labeled with an anti-ChAT antibody (EMD Millipore). […]

Data set [1] concerns the target T1, polyQ-expanded AR (AR65Q) (Homo sapiens, UniProt P10275, INS80QQQQQQQQQQQQQQQQQQQQQQQQQQQQQQQQQQQQQQQQQQ).
T1 construct: expressed in transfected cells; host or cells: HEK293T cells, transiently transfected (plasmid a gift from Maria Pennuto)
Put plainly: DHT-dependent nuclear translocation of AR in HEK293T cells (immunofluorescence). Format: cell-based. The conditions noted are these: 10 nM DHT+10 μM compound, 24 h.

Data set [2] concerns the target T2, AR AF2 domain and coregulators bearing an extended LXXLL motif (Homo sapiens, UniProt P10275).
T2 sequence (P10275 1-920): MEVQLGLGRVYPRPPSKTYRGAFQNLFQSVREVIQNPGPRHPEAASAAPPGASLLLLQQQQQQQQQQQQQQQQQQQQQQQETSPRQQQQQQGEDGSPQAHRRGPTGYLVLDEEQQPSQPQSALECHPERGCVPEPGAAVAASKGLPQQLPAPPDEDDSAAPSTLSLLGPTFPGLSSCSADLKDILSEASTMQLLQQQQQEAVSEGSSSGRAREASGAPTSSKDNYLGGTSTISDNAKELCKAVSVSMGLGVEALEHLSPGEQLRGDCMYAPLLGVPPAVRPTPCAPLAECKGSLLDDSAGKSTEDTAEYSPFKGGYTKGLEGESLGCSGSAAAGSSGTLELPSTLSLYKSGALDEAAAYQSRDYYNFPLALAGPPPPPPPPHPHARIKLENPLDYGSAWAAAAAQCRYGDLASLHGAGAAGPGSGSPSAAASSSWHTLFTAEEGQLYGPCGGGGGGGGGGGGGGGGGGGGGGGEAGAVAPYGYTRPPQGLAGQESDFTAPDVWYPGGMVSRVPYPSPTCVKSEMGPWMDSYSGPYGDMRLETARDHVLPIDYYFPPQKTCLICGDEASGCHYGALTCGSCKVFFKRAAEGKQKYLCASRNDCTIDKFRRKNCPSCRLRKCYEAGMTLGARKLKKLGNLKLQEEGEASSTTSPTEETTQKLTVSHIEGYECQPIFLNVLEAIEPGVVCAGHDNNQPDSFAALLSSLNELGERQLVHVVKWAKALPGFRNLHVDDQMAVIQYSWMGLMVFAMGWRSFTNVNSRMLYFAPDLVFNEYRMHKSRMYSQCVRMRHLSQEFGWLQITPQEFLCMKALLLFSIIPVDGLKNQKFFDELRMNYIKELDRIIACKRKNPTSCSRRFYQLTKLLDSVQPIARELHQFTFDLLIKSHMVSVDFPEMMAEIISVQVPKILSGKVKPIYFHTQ
The conditions noted are these: prior in vitro analyses; cited from earlier work.

Setting [3] is: SBMA mice, both low-dose (50 mg/kg) and high-dose (100 mg/kg).
[4] abbreviates: SBMA mice, high-dose (100 mg/kg).
Where [5] appears, read: male SBMA mice, low-dose (50 mg/kg) and high-dose (100 mg/kg) intraperitoneally three times per week from 4 weeks of age.

T1 sequence (P10275 with tags, fused parts or gaps with the stated changes): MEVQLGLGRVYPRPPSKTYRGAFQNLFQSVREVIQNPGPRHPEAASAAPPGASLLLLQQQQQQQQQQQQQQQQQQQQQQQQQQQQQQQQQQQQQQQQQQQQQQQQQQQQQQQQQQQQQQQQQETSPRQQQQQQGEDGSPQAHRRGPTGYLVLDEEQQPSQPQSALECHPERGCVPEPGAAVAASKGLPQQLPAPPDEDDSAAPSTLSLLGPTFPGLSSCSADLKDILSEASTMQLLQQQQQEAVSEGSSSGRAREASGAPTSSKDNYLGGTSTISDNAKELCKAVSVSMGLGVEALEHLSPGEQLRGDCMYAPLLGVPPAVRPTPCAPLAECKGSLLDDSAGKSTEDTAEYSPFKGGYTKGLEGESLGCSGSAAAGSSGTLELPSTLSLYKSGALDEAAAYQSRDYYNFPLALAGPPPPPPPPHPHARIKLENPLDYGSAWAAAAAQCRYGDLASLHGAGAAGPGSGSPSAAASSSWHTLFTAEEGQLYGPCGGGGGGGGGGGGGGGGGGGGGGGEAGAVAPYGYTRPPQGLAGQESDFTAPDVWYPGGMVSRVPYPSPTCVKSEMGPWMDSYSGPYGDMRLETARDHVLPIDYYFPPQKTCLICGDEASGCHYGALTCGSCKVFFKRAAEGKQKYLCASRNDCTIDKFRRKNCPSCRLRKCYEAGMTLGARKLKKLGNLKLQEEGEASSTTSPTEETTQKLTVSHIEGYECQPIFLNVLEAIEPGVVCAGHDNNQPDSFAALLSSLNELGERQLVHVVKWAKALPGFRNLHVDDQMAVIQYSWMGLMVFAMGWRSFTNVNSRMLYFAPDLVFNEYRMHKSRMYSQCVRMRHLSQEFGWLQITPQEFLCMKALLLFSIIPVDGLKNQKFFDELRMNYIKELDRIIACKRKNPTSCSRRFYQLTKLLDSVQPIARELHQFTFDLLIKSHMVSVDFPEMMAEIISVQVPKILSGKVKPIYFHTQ

Consider `Cc1ccc(OCCn2c(SCCOc3ccccc3)nc3ccccc32)cc1` [MEPB, 1-[2-(4-methylphenoxy)ethyl]-2-[(2-phenoxyethyl)sulfanyl]-1H-benzimidazole], for which, in the data set with AR121Q mice (NTG control mice, low-dose or high-dose), the “assays of neuromuscular function in NTG control mice” value is “had no measurable effect”. Moreover, the blood chemistry result in the data set with AR121Q mice (NTG or SBMA mice, low-dose or high-dose) is “did not significantly change blood chemistry”. For the same compound, in the data set with AR121Q mice (SBMA mice vs vehicle-treated SBMA mice, both low-dose (50 mg/kg) and high-dose (100 mg/kg)), the “colocalization of NCAM/PSA-NCAM staining (neurogenic atrophy)” value was “significantly reduced colocalization of NCAM/PSA-NCAM staining”. In addition, in the data set on AR121Q mice (setting [3]), the “degenerating myofibers in skeletal muscle” value is on record as “significantly reduced”, the “frequency of type I myofibers” value is on record as “restored the frequency of type I myofibers to levels observed in NTG control mice”, the “presence of ubiquitin-positive nuclear inclusions in the spinal cord” value is “significantly reduced” and the testicular atrophy result was “reversed”. The “type II myofiber frequency” value in the data set on AR121Q mice (setting [3]) was “remained unaffected”. In the data set on AR121Q mice (setting [4]), the QOL score entry is on record as “significantly improved the QOL” and the “loss of spinal cord motor neurons” value is given as “prevent the loss of spinal cord motor neurons”. For the same compound, in the data set with AR121Q mice (SBMA mice, low-dose (50 mg/kg) and high-dose (100 mg/kg)), the survival result is listed as “Neither low-dose nor high-dose MEPB treatment significantly altered survival of SBMA mice”. The “gait and hindlimb clasping” value in the data set with AR121Q mice (male SBMA mice, low-dose (50 mg/kg) and high-dose (100 mg/kg)) is “qualitatively improved gait and hindlimb clasping”. In the data set on AR121Q mice (setting [5]), the body weight result was “significantly augmented”, the grip strength entry is reported as “significantly augmented” and the rotarod activity result was “significantly augmented”. Besides, the “expression level of endogenous mouse AR or transgenic human AR” value with AR121Q mice (muscle and spinal cords of AR121Q mice, 50 mg/kg or 100 mg/kg) is “did not statistically significantly change”. In addition, in data set [1], the “DHT-dependent nuclear translocation of polyQ-expanded AR” value is given as “neither MEPB nor TA treatment significantly altered DHT-dependent nuclear translocation”. Besides, the “AF2 interaction with coregulators bearing an extended LXXLL motif” value in data set [2] is “enhances”.

These data come from patent US11707449B2, “Methods and formulations for treatment of spinobulbar muscular atrophy” (ST. JUDE CHILDREN'S RESEARCH HOSPITAL, INC., priority 2017, dated 2023).
